# Source: article PMC9181589, “Antamanide Analogs as Potential Inhibitors of Tyrosinase” (International Journal of Molecular Sciences, 2022)
# Entries after “also recorded” stand apart in the source; their conditions may differ.
# Key:
# mushroom tyrosinase = experiment: Tyrosinase inhibition, UV-Vis spectroscopic method (L-Tyr oxidation by tyrosinase/O2); format: biochemical
# Excerpt: The capability of peptides to inhibit the activity of tyrosinase has been evaluated by a UV-Vis spectroscopic method monitoring the changes in the UV-Vis spectrum of its natural substrate, L-Tyr. […] The addition of enzyme firstly hydroxylated the L-Tyr residue to dihydroxyphenylalanine (DOPA) and successively oxidized DOPA to dopaquinone, which is then converted to dopachrome (Scheme 2). Both DOPA and dopaquinone appearance can be detected by the change in the UV-Vis spectrum. The hydroxylation of L-Tyr to DOPA is characterized by an increase in the intensity of the band at 275 nm and the appearance of an additional band at about 304 nm, while the oxidation to dopaquinone is made detectable by the appearance of a band at 470–490 nm. […] This phase is related to the monophenolase activity of the enzyme and essentially is due to the low amount of the oxy form of the tyrosinase enzyme in the commercially available preparation. Although other various factors may play an important role, including substrate and enzyme concentration, enzyme source, pH of the medium, and presence of hydrogen donors such as DOPA or other catechols, also the presence of transition metal ions can influence the presence and the length of this lag-phase.
# Millimolar peptide stock solutions were prepared in DMSO and then diluted to μM concentration by buffer in UV cells. […] The capability of peptides to inhibit the tyrosinase activity was evaluated at two different peptide concentrations, 2 and 0.2 µM.
# The capability of cyclic peptides to inhibit the oxidation of Tyr by the tyrosinase/O2 oxidizing system was monitored by means of a UV-Vis spectroscopy method, carried out in a Shimadzu UV-Visible UV-2501 spectral spectrophotometer using Helma (Mülheim, Germany) duple chambers UV-cell (2 × 4.375 mm). Briefly, 880 µL of a Tyr solution (2 mM) and 900 µL of a mushroom tyrosinase solution (2000 U/mL, Sigma-Aldrich), both dissolved in 50 mM phosphate buffer (pH 6.8), were separately introduced in the duple UV-cell chambers. A total of 20 µL of an appropriate DMSO stock solution of inhibitors (1.8, 0.18, or 0.018 mM) were added to the chamber containing the Tyr solution. The tyrosinase activity in absence of inhibitors was detected by adding 20 µL of DMSO. A background UV-Vis spectrum was acquired in the 250–800 nm wavelength range with a 2.0 nm slit and fast speed before starting the reaction. Thereafter, the solutions were mixed, and UV-Vis spectra were acquired at different time points after mixing. Three replicates were performed for each experiment. Data processing was performed with UV Probe (Shimazdu, Kyoto, Japan) and OriginPro 2019 (v. 9.60) software (OriginLab Corporation, Northampton, MA, USA).
# Purchased mushroom tyrosinase was used without further purification. […] The concentration of the two solution was determined spectrophotometrically (εTyr at 274.6 nm = 1.420; εtyrosinase at 280 nm = 1.426).
# Tyrosinase-dependent diphenol and o-quinone formation was assessed as the appearance of a characteristic absorption band at about 304 and 477 nm, respectively. The inhibition activity was determined according to the following equation [33, 34]:% inhibition = 1 − [(D − C)/(B − A)] ∗ 100 where C and D are the absorbance values at either 304 or 477 nm in presence of inhibitor before mixing and upon reaching the maximum absorbance, respectively, while A and B are the corresponding values in absence of inhibitor.
# [1] = cited from earlier work
# Excerpt: Antamanide is a cyclic decapeptide isolated from the lipophilic fraction of an extract of the green toadstool Amanite phalloides, able to form complexes of high stability with different metal ions. In order to improve the hydrophilicity of this peptide, the Phe residue at either the six or nine positions was replaced with a Gly residue.
# B16F10 metastatic cells = conditions: after 24 h of treatment; cited from earlier work
# Excerpt: In the past years, we evaluated the chemical and biological activities of the cyclic decapeptide antamanide, firstly isolated from the lipophilic fraction of an extract of Amanite phalloides by the T. Wieland’s group in 1962 [3]. A characteristic of this peptide is its ability to form complexes of high stability with metal ions, including Na^+, K^+, Ca^2+, Tl^3+, and others. A close correlation has been found between the ion binding properties and the selectivity for Na^+ over K^+ with its antitoxic activity against phallotoxins and the prevention of their accumulation ... || Antamanide is a cyclic decapeptide isolated from the lipophilic fraction of an extract of the green toadstool Amanite phalloides, able to form complexes of high stability with different metal ions. In order to improve the hydrophilicity of this peptide, the Phe residue at either the six or nine positions was replaced with a Gly residue.
Substance,"effects on tyrosinase activity (mushroom tyrosinase; antamanide concentration 20 µM, data not shown)","tyrosinase inhibitory activity (mushroom tyrosinase; peptide 2 and 0.2 µM from DMSO stock, L-Tyr substrate, 50 mM phosphate buffer pH 6.8, UV-Vis at 304 and 477 nm, three replicates)",ions selectivity [1],cell proliferation of metastatic melanoma cell line (B16F10 metastatic cells),dependence of tyrosinase inhibitory activity on peptide concentration (mushroom tyrosinase; 2 versus 0.2 µM (Figure 4)),"inhibitory activity towards the hydroxylation of tyrosine (mushroom tyrosinase; calculated at 303 nm, peptide 2 and 0.2 µM, 50 mM phosphate buffer pH 6.8)","inhibition of the oxidation of DOPA to dopaquinone (mushroom tyrosinase; calculated at 477 nm, peptide 2 and 0.2 µM, 50 mM phosphate buffer pH 6.8, three replicates)"
antamanide,absence of effects,did not inhibit; also recorded: No inhibitory activity; also recorded: not able to inhibit,Ca > Na >> K,significant reduction of cell proliferation,,,
pseudostellarin A [PS-A],,,,,lower when the concentration was higher,low activity,about 30%
